The values below come from publication PMC12145446, “Development of an AI model for DILI-level prediction using liver organoid brightfield images” (Communications Biology, 2025).

For series [1] the following is noted: cited from earlier work; for Label section / Severity class: DILIrank; for Label section: FDA drug label section; for DILIrank: FDA DILIrank category based on clinical data.
For series [2] the following is noted: peak serum concentration used as dosing reference; source not given; cited from earlier work.
In series [3] the test system is human liver organoids (HLOs). In words: Cellular viability (ATP, CellTiter-Glo) in the DILI toxicity test on human liver organoids. It counts as cell-based. To be noted: 10*Cmax; for ATP inhibition, significance vs 0*Cmax: liver organoids, Supplementary Fig. 2, peer review file. Here is the method: (§1) All experiments were performed using HLOs derived from a single donor tissue. For each assay, three technical replicates were analyzed, corresponding to three independently cultured wells seeded with organoids. For passage, the following embedding method was used: HLOs were enzymatically or mechanically fragmented (with pre-cold phosphate-buffered saline (PBS)) and reseeded in new Matrigel. Specifically, the pre-cold Matrigel/cell mixture is seeded in 24-well plates at 30 μL/well to enable the formation of dome-shaped structures. Incubation in the cell incubator (37 °C, 5% CO2) for 15 min is required for Matrigel polymerization. After solidification, 500 μL of specific medium is added and later renewed at specific intervals.
(§2) The peak serum concentration (Cmax) can intuitively reflect the actual presence level of a drug in the body’s circulatory system. […] On this basis, we selected 10*Cmax as the reference concentration, taking into account the coefficient of variation in toxicology (individual variability: tenfold). […] Each drug was tested in triplicate. Plates were dosed with the drug for 72 h in each cycle (referred to as Day 0 through Day 3). […] At the end of day 3, the supernatant from each well was collected to determine ALB secretion, and the spheroids from each well were used for the cell viability assay.
CellTiter-Glo (CTG, G9681, PROMEGA) reagent and culture medium were added to each well in a 1:1 ratio. The contents were mixed for 2 min to induce cell lysis. The plate was incubated at room temperature for 10 min to stabilize the luminescent signal. Recording of luminescence was carried out with BioTek Microplate Reader Synergy H1 (Vermont, USA).

Series [4] has as its system human liver organoids (HLOs). Description: ALB secretion (Human Albumin ELISA) in the DILI toxicity test on human liver organoids. It counts as cell-based. To be noted: 10*Cmax; for ALB inhibition, significance vs 0*Cmax: liver organoids, Supplementary Fig. 1. The protocol: as §1, §2
The culture supernatants were collected and stored at −80 °C until use. The supernatant was assayed with a Human Albumin ELISA Kit (PROTEINTECH, KE00076). Assays were performed according to the manufacturer’s instructions.

The test system of series [5] is human liver organoids (HLOs). Description: Brightfield morphology of dosed human liver organoids. It counts as cell-based. The settings on record: 10*Cmax.
Description: To explore the suitability of liver models with varying levels of complexity for DILI toxicity testing platforms, we established a single-type cell 3D model (HepG2 spheroid) and a multi-type cell 3D model (liver organoid). Specifically, HepG2 spheroids and HLOs were each exposed to 30 compounds with or without hepatotoxicity. The levels of ALB from the supernatant and cellular activity (ATP) from the spheres were further assessed at the end of Day 3 to validate the reliability of the system (Figs. 2b, d, f and 3b, d, f). […] The brightfield images across different time series and different z-axis orientations were collected daily to generate image data for morphological analysis (Supplementary Figs. 5 and 6).
as §2

Values joined by “and” are separate entries in the source; they are usually repeats but may differ in a detail not shown here. Identical values can stand only once. “Also recorded” adds a separate entry of the source.

For the molecule `CC(=O)Nc1ccc(O)cc1` [Acetaminophen], the Label section entry in series [1] was “Warnings and precautions”.
As for `CCc1oc2ccccc2c1C(=O)c1cc(Br)c(O)c(Br)c1` [Benzbromarone], in series [1], the Label section entry was “Withdrawn”, the Severity class was 8 and the DILIrank entry was “vMost-DILI-Concern”. For the same molecule, the Cmax in series [2] is 1840 ng/mL.
In the case of `COc1ccccc1Oc1c(NS(=O)(=O)c2ccc(C(C)(C)C)cc2)nc(-c2ncccn2)nc1OCCO` [Bosentan], in series [1], the Label section entry was “Box warning”, the Severity class is on record as 7 and the DILIrank result is “vMost-DILI-Concern”. The Cmax in series [2] is 2286 ng/mL.
As to `O=C1CC2(CCCC2)CC(=O)N1CCCCN1CCN(c2ncccn2)CC1` [Buspirone], in series [1], the Label section result is on record as “Adverse reactions”, the Severity class is 3 and the DILIrank entry was “Ambiguous DILI-concern”. Further, the Cmax in series [2] was 1.92 ng/mL.
Take `CN(C)CCC(c1ccc(Cl)cc1)c1ccccn1` (stereo not shown) [Chlorpheniramine]: the ATP inhibition in series [3] (human liver organoids, end of Day 3 (72 h), individual replicates n = 3, listed as Chlorphenamine) is 13% and 9% and -14%. In series [1], the Label section entry is “No match”, the Severity class is 0 and the DILIrank entry was “vNo-DILI-Concern”. Further, the “DILI level label by DILIrank” value in series [1] (label as worded in text and figure legends) is “No-DILI”. The Cmax in series [2] was 140 ng/mL. Moreover, in series [4] (human liver organoids, end of Day 3 (72 h), individual replicates n = 3, unit from Fig. S1 legend, listed as Chlorphenamine), the ALB inhibition was 1% and 9%. The “Brightfield morphology changes of HLOs” value in series [5] (Day 0 to Day 3) was “still increased in diameter and developed into a typical translucent hollow sphere with clear boundaries”. For the same molecule, the “Brightfield morphology changes of HLOs” value in series [5] (Day 0 to Day 3, listed as Chlorphenamine) is listed as “still grew significantly”.
Consider `Cc1nc(Nc2ncc(C(=O)Nc3c(C)cccc3Cl)s2)cc(N2CCN(CCO)CC2)n1` [Dasatinib], for which, in series [1], the Label section entry was “Adverse reactions”, the Severity class is on record as 4 and the DILIrank result was “vLess-DILI-Concern”. For the same molecule, the Cmax in series [2] was 129 ng/mL.
As to `O=C(O)Cc1ccccc1Nc1c(Cl)cccc1Cl` [Diclofenac], in series [1], the Label section result is “Warnings and precautions”; the Severity class is 8; the DILIrank result is listed as “vMost-DILI-Concern”.
Consider `C[C@H]1O[C@@H](O[C@H]2[C@@H](O)C[C@H](O[C@H]3[C@@H](O)C[C@H](O[C@H]4CC[C@@]5(C)[C@H](CC[C@@H]6[C@@H]5C[C@@H](O)[C@]5(C)[C@@H](C7=CC(=O)OC7)CC[C@]65O)C4)O[C@@H]3C)O[C@@H]2C)C[C@H](O)[C@@H]1O` [Digoxin], for which the “ATP inhibition, significance vs 0*Cmax” value in series [3] is recorded as “significant”. Also, in series [2], the maximum concentration (Cmax) is 2.21 ng/mL. The “ALB inhibition, significance vs 0*Cmax” value in series [4] is recorded as “significant”.
In the case of `CN(C)CCOC(c1ccccc1)c1ccccc1` [Diphenhydramine], in series [1], the Label section result is “No match” and the Severity class is reported as 0.
For the molecule `CCN(CC)C(=O)/C(C#N)=C/c1cc(O)c(O)c([N+](=O)[O-])c1` [Entacapone], in series [1], the Label section result is recorded as “No match”, the Severity class is reported as 0 and the DILIrank result was “vLess-DILI-Concern”. Moreover, the Cmax in series [2] is 1000 ng/mL.
In the case of `C#Cc1cccc(Nc2ncnc3cc(OCCOC)c(OCCOC)cc23)c1` [Erlotinib], in series [1], the Label section entry was “Warnings and precautions”; the Severity class was 8; the DILIrank entry is on record as “vMost-DILI-Concern”. For the same molecule, in series [2], the Cmax was 1200 ng/mL.
`CC(C)C(=O)Nc1ccc([N+](=O)[O-])c(C(F)(F)F)c1` [Flutamine]: in series [1], the Label section entry was “Box warning”, the Severity class was 8 and the DILIrank result is “vMost-DILI-Concern”. The Cmax in series [2] was 100 ng/mL.
Turning to `COc1cc2ncnc(Nc3ccc(F)c(Cl)c3)c2cc1OCCCN1CCOCC1` [Gefitinib], the Cmax in series [2] was 200 ng/mL. Also, in series [5] (Day 0 to Day 3), the “Brightfield morphology changes of HLOs” value is “underwent cell death, failed to maintain their original spherical structure, and disintegrated by the end of Day 3; also recorded: started to undergo significant cell death and structural disintegration”.
Regarding `NNC(=O)c1ccncc1` [Isoniazid], in series [3], the “ATP inhibition, significance vs 0*Cmax” value is “did not show a significant difference”. For the same molecule, in series [1], the Label section entry is recorded as “Box warning”, the Severity class was 8 and the DILIrank result is listed as “vMost-DILI-Concern”. For the same molecule, in series [2], the Cmax is 10500 ng/mL. For the same molecule, the “ALB inhibition, significance vs 0*Cmax” value in series [4] is “did not show a significant difference”.
Take `C[C@H]1COc2c(N3CCN(C)CC3)c(F)cc3c(=O)c(C(=O)O)cn1c23` [Levofloxacin]: in series [1], the DILIrank entry is listed as “vMost-DILI-Concern”. In addition, the Cmax in series [2] was 5700 ng/mL.
Consider `CCN(CC)CC(=O)Nc1c(C)cccc1C` [Lidocaine], for which, in series [1], the Label section result was “No match” and the Severity class is listed as 0.
Turning to `CN(Cc1cnc2nc(N)nc(N)c2n1)c1ccc(C(=O)N[C@@H](CCC(=O)O)C(=O)O)cc1` [Methotrexate], in series [1], the Label section entry was “Box warning”, the Severity class is 3 and the DILIrank result is “vMost-DILI-Concern”. Also, the peak concentration (Cmax) in series [2] is 351 ng/mL.
For `CCc1nn(CCCN2CCN(c3cccc(Cl)c3)CC2)c(=O)n1CCOc1ccccc1` [Nefazodone], in series [1], the Label section result is “Box warning”, the Severity class is 8 and the DILIrank result is “vMost-DILI-Concern”. The Cmax in series [2] was 434.9 ng/mL.
`CS(=O)(=O)Nc1ccc([N+](=O)[O-])cc1Oc1ccccc1` [Nimesulide]: in series [1], the Label section result was “Withdrawn”, the Severity class is listed as 8 and the DILIrank result is given as “vMost-DILI-Concern”. The Cmax in series [2] was 6500 ng/mL.
Take `CC(=O)O[C@H]1C(=O)[C@@]2(C)[C@H]([C@H](OC(=O)c3ccccc3)[C@]3(O)C[C@H](OC(=O)[C@H](O)[C@@H](NC(=O)c4ccccc4)c4ccccc4)C(C)=C1C3(C)C)[C@]1(OC(C)=O)CO[C@@H]1C[C@@H]2O` [Paclitaxel]: in series [1], the Label section result is given as “Adverse reactions”, the Severity class is 4 and the DILIrank entry was “vLess-DILI-Concern”. Further, the highest concentration (Cmax) in series [2] is 600 ng/mL.
As to `CCc1ccc(CCOc2ccc(CC3SC(=O)NC3=O)cc2)nc1` (stereo not shown) [Pioglitazone], in series [1], the Label section entry is “Warnings and precautions”; the Severity class is reported as 3; the DILIrank result is recorded as “vLess-DILI-Concern”. In series [2], the Cmax was 1050 ng/mL.
In the case of `Cc1cn([C@H]2C=C[C@@H](CO)O2)c(=O)[nH]c1=O` [Stavudine], in series [1], the Label section result is on record as “Box warning”, the Severity class is given as 8 and the DILIrank result is “vMost-DILI-Concern”. Moreover, the Cmax in series [2] is 776.4 ng/mL.
As to `Cc1ccc(C(=O)c2cc(O)c(O)c([N+](=O)[O-])c2)cc1` [Tolcapone], in series [1], the Label section result is listed as “Box warning (withdrawn)”, the Severity class is 8 and the DILIrank entry is “vMost-DILI-Concern”. In series [2], the Cmax was 13000 ng/mL.
For the molecule `Cc1c(C)c2c(c(C)c1O)CCC(C)(COc1ccc(CC3SC(=O)NC3=O)cc1)O2` (stereo not shown) [Troglitazone], in series [1], the Label section entry is “Withdrawn”, the Severity class is listed as 8 and the DILIrank result was “vMost-DILI-Concern”. Moreover, the Cmax in series [2] is 2820 ng/mL.
Regarding `CC[C@]1(O)C[C@@H]2CN(CCc3c([nH]c4ccccc34)[C@@](C(=O)OC)(c3cc4c(cc3OC)N(C)[C@H]3[C@@](O)(C(=O)OC)[C@H](OC(C)=O)[C@]5(CC)C=CCN6CC[C@]43[C@@H]65)C2)C1` [Vinblastine], in series [3], the “ATP inhibition, significance vs 0*Cmax” value is on record as “significant”. For the same molecule, the peak concentration (Cmax) in series [2] is 28 ng/mL. The “ALB inhibition, significance vs 0*Cmax” value in series [4] is “significant”.
`CC(c1cc2ccccc2s1)N(O)C(N)=O` (stereo not shown) [Zileuton]: in series [1], the Label section entry was “Warnings and precautions”; the Severity class is given as 5; the DILIrank entry is reported as “vMost-DILI-Concern”. Moreover, the Cmax in series [2] is 3100 ng/mL.
